# Patent US7196110B2, “N-substituted tricyclic 3-aminopyrazoles as inhibitors for the treatment of cell proliferative disorders” (Janssen Phamaceutica N.V., priority 2002, dated 2007)
# Biological target: T1, PDGF-receptor beta enzyme comprising the tyrosine kinase domain (Homo sapiens, UniProt P09619)
# T1 construct: from amino acid 545 to 1106 of GenBank Access NO: AAA36427
# Experiment: Inhibition of PDGF-receptor kinase activity (cell-free, PLC1 peptide, 33P Flashplate)
# Assay type: biochemical
# Conditions: PDGF-R kinase activity; for inhibition at 10 µM: compound at 10 uM, read-out: Percent Inhibition @ 10 uM; for IC50: read-out: IC50
# Summary of the method: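 Recombinant kinase domain (aa 545–1106) phosphorylated a biotinylated PLC1 peptide with 5 μM ATP plus 33P-γ-ATP, in Tris pH 8, MgCl2, Na3VO4 and 1 mM DTT, for 60 min at 30 °C. Retained 33P was counted after washing. IC50 is the concentration halving activity versus no-inhibitor reactions.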
# T1 sequence (P09619 545-1106): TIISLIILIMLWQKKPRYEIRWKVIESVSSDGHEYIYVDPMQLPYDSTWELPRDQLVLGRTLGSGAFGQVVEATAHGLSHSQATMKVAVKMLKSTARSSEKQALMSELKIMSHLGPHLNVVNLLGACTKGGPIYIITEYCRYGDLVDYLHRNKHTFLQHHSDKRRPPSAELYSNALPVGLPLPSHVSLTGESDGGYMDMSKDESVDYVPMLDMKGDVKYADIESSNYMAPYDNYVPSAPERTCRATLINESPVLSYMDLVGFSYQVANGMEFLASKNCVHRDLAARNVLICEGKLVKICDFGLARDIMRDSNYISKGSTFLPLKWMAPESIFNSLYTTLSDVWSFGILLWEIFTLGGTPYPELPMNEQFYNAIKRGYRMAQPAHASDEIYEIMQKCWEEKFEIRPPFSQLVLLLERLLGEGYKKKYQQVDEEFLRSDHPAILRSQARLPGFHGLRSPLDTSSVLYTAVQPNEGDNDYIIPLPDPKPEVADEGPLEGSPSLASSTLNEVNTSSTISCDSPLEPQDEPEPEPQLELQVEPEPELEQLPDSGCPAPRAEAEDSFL
SMILES,inhibition at 10 µM [%],IC50 [nM]
"COc1cccc(Nc2n[nH]c3c2Cc2sccc2-3)c1 [Compound 232, (5,7-Dihydro-1-thia-4,5-diaza-cyclopenta[a]pentalen-6-yl)-(3-methoxy-phenyl)-amine]",102,39.6
"COc1ccc2c(c1)-c1n[nH]c(Nc3ccc(OC(F)(F)F)cc3)c1C2 [Compound 177, (7-Methoxy-2,4-dihydro-indeno[1,2-c]pyrazol-3-yl)-(4-trifluoromethoxy-phenyl)-amine]",65.5,523
"CCOc1cc2c(cc1OCC)C(C)c1c-2n[nH]c1Nc1cccc(Br)c1 (stereo not shown) [Compound 346, (3-Bromo-phenyl)-(6,7-diethoxy-4-methyl-2,4-dihydro-indeno[1,2-c]pyrazol-3-yl)-amine]",98,73.9
"COc1cc2c(cc1OC)-c1n[nH]c(Nc3ccccc3C(F)(F)F)c1C2 [Compound 28, (6,7-Dimethoxy-2,4-dihydro-indeno[1,2-c]pyrazol-3-yl)-(2-trifluoromethyl-phenyl)-amine]",96,19100
"Cc1ccc2c(c1)-c1n[nH]c(NCc3ccc(C)c(Cl)c3)c1C2 [Compound 315, (3-Chloro-4-methyl-benzyl)-(7-methyl-2,4-dihydro-indeno[1,2-c]pyrazol-3-yl)-amine]",17.5,1920
"COc1ccc(Nc2[nH]nc3c2Cc2c(C)cccc2-3)c(OC)c1 [Compound 102, (2,4-Dimethoxy-phenyl)-(5-methyl-2,4-dihydro-indeno[1,2-c]pyrazol-3-yl)-amine]",50,3400
"COc1ccc2c(c1)Cc1c-2n[nH]c1Nc1ccccc1 [Compound 7, (6-Methoxy-2,4-dihydro-indeno[1,2-c]pyrazol-3-yl)-phenyl-amine]",92,217
"COc1cc2c(cc1OC)-c1c(c(Nc3cccc(F)c3)nn1C(=O)NCCNC(C)=O)C2 [Compound 526, 3-(3-Fluoro-phenylamino)-6,7-dimethoxy-4H-indeno[1,2-c]pyrazole-1-carboxylic acid (2-acetylamino-ethyl)-amide]",73,8090
"COc1ccc2c(c1)Cc1c-2n[nH]c1Nc1cccc(Br)c1 [Compound 83, (3-Bromo-phenyl)-(6-methoxy-2,4-dihydro-indeno[1,2-c]pyrazol-3-yl)-amine]",93,71.9
"c1ccc(Nc2[nH]nc3c2CCc2sccc2-3)cc1 [Compound 52, (4,5-Dihydro-2H-6-thia-1,2-diaza-as-indacen-3-yl)-phenyl-amine]",71,2400
"Fc1cccc(Nc2[nH]nc3c2Cc2cc(F)ccc2-3)c1 [Compound 235, (6-Fluoro-2,4-dihydro-indeno[1,2-c]pyrazol-3-yl)-(3-fluoro-phenyl)-amine]",86,211
"COc1ccc2c(c1)-c1n[nH]c(Nc3ccc(C(F)(F)F)cc3)c1C2 [Compound 178, (7-Methoxy-2,4-dihydro-indeno[1,2-c]pyrazol-3-yl)-(4-trifluoromethyl-phenyl)-amine]",98.5,132
"COc1cc2c(cc1OC)C(C)c1c-2n[nH]c1Nc1ccc(F)cc1 (stereo not shown) [Compound 248, (6,7-Dimethoxy-4-methyl-2,4-dihydro-indeno[1,2-c]pyrazol-3-yl)-(4-fluoro-phenyl)-amine]",68,410
"COc1cc2c(cc1OC)-c1n[nH]c(NCC3CCCCC3)c1C2 [Compound 220, Cyclohexylmethyl-(6,7-dimethoxy-2,4-dihydro-indeno[1,2-c]pyrazol-3-yl)-amine]",73,3290
"N#Cc1ccc2c(c1)CCc1c-2n[nH]c1Nc1ccccc1 [Compound 350, 3-Phenylamino-4,5-dihydro-2H-benzo[g]indazole-7-carbonitrile]",91,651
"COc1cc2c(cc1OC)-c1c(c(Nc3cccc(F)c3)nn1CC(C)O)C2 (stereo not shown) [Compound 502, 1-[3-(3-Fluoro-phenylamino)-6,7-dimethoxy-4H-indeno[1,2-c]pyrazol-1-yl]-propan-2-ol]",60.5,54000
"COc1ccc(OC)c(Nc2[nH]nc3c2Cc2c(C)cccc2-3)c1 [Compound 101, (2,5-Dimethoxy-phenyl)-(5-methyl-2,4-dihydro-indeno[1,2-c]pyrazol-3-yl)-amine]",52,1090
"Brc1cccc(Nc2[nH]nc3c2Cc2c(OCCN4CCCC4)cccc2-3)c1 [Compound 478, (3-Bromo-phenyl)-[5-(2-pyrrolidin-1-yl-ethoxy)-2,4-dihydro-indeno[1,2-c]pyrazol-3-yl]-amine]",93.5,162
"CCC1c2cc(OC)c(OC)cc2-c2nn(C(=O)COC)c(Nc3cccc(Br)c3)c21 (stereo not shown) [Compound 515, 1-[3-(3-Bromo-phenylamino)-4-ethyl-6,7-dimethoxy-4H-indeno[1,2-c]pyrazol-2-yl]-2-methoxy-ethanone]",90,136
"COc1cc2c(c(N)c1OC)Cc1c-2n[nH]c1Nc1cccc(F)c1 [Compound 558, N3-(3-Fluoro-phenyl)-6,7-dimethoxy-2,4-dihydro-indeno[1,2-c]pyrazole-3,5-diamine]",102,12.1
"CCOC(=O)Cn1nc2c(c1Nc1cccc(F)c1)Cc1cc(OC)c(OC)cc1-2 [Compound 510, [3-(3-Fluoro-phenylamino)-6,7-dimethoxy-4H-indeno[1,2-c]pyrazol-2-yl]-acetic acid ethyl ester]",57,26600
COc1cccc(Nc2[nH]nc3c2Cc2ccccc2-3)c1 [Compound 343],99.5,8.08
"COc1cc2c(cc1OC)-c1n[nH]c(N3CCc4ccccc43)c1C2 [Compound 566, 3-(2,3-Dihydro-indol-1-yl)-6,7-dimethoxy-2,4-dihydro-indeno[1,2-c]pyrazole]",54,–
"Brc1ccc2c(c1)Cc1c-2n[nH]c1Nc1ccccc1 [Compound 158, (6-Bromo-2,4-dihydro-indeno[1,2-c]pyrazol-3-yl)-phenyl-amine]",87.5,186
"COc1ccncc1Nc1[nH]nc2c1Cc1cc(OC)c(OC)cc1-2 [Compound 453, (6,7-Dimethoxy-2,4-dihydro-indeno[1,2-c]pyrazol-3-yl)-(4-methoxy-pyridin-3-yl)-amine]",88,829
"CC1c2ccccc2-c2n[nH]c(Nc3ccc(OC(F)(F)F)cc3)c21 (stereo not shown) [Compound 113, (4-Methyl-2,4-dihydro-indeno[1,2-c]pyrazol-3-yl)-(4-trifluoromethoxy-phenyl)-amine]",60,2450
"CCOc1cccc(Nc2[nH]nc3c2Cc2c(OCCCN4CCOCC4)cccc2-3)c1 [Compound 394, (3-Ethoxy-phenyl)-[5-(3-morpholin-4-yl-propoxy)-2,4-dihydro-indeno[1,2-c]pyrazol-3-yl]-amine]",91,329
"CCC1c2cc(OC)c(OC)cc2-c2n[nH]c(Nc3cccc(OC)c3)c21 (stereo not shown) [Compound 512, (4-Ethyl-6,7-dimethoxy-2,4-dihydro-indeno[1,2-c]pyrazol-3-yl)-(3-methoxy-phenyl)-amine]",92,183
